Experimental data from patent publication US12729377B2, “RNAi agents and compositions for inhibiting expression of angiopoietin-like 3 (ANGPTL3), and methods of use” (Arrowhead Pharmaceuticals, Inc., priority 2017, dated 2026).
In the oligonucleotide strings, read from the 5' end, every base follows the letter of its sugar. An asterisk marks phosphorothioate; unmarked linkages are phosphodiester. Other units and linkages are bracketed, terminal groups are in braces. A string of capitals states the bases alone. {NAG37} = tridentate N-acetyl-galactosamine targeting ligand, structure (NAG37)s; [invAb] = inverted abasic unit; m = 2'-O-methyl; f = 2'-fluoro

What was measured:
ANGPTL3 protein [1] = assay: Example 7: serum ANGPTL3 protein by ELISA in mice; format: in vivo, C57bl/6 mice; parameters: key: ratio: (level/pre-treatment day -1 level) ÷ mean of D5W control group
Procedure: (§1) To further assess the in vivo activity of additional ANGPTL3 RNAi agents that are designed to target position 304 on the ANGPTL3 gene, six- to eight-week-old female C57bl/6 mice were used. Pre-dose serum samples were taken at day −1 after a four hour fast. At day 1, each mouse was given a single subcutaneous administration of 200 μl containing 0.5 mg/kg (mpk) of an ANGPTL3 RNAi agent in D5W (dextrose in 5% water), or control (D5W) with no RNAi agent, according to the dosing groups recited in Table 31.
(§2) Each of the RNAi agents included a modified sequence and an N-acetyl-galactosamine-containing targeting ligand conjugated to the 5′ terminal end of the sense strand. (See Tables 3, 4, and 5 for modified sequences and targeting ligand structures). The injections were performed between the skin and muscle (i.e. subcutaneous injections) into the loose skin over the neck and shoulder area. Three (3) mice in each group were tested (n=3). Serum was collected on days 8, 15, 22, and 29. Mice were fasted for four hours prior to each collection. ANGPTL3 protein levels in serum were measured by ELISA assay (R&D Systems), according to the manufacturer's recommendations. Triglycerides, total cholesterol, high-density lipoprotein (HDL), and low-density lipoprotein (LDL) in serum were measured on a Cobas® Integra 400 (Roche Diagnostics), according to the manufacturer's recommendations.
(§3) The ANGPTL3 protein levels, triglyceride levels, total cholesterol levels, HDL levels, and LDL levels for each animal were normalized. For normalization, the level of ANGPTL3 protein, triglyceride, HDL, and total cholesterol, respectively, for each animal at a time point, was divided by the pre-treatment level of expression in that animal (in this case at day −1) to determine the ratio of expression “normalized to pre-treatment.” Expression at a specific time point was then normalized to the D5W control group by dividing the “normalized to pre-treatment” ratio for an individual animal by the mean “normalized to pretreatment” ratio of all mice in the D5W control group.

ANGPTL3 gene [2] = assay: Example 4: serum HDL in mice; format: in vivo, C57bl/6 mice
Procedure: as §1, with “To” for “To further”, “of” for “of additional”, “additional positions” for “position 304”, “containing either 1 mg/kg (mpk) or” for “containing”, “17.” for “31.”
as §2, with “22, 29,” for “22,”, “day 43 (Groups 1-3, 9, and 11-13 only).” for “29.”, “Triglycerides,” for “Triglycerides, total cholesterol,”, “total cholesterol” for “low-density lipoprotein (LDL)”
(§4) The ANGPTL3 protein levels, triglyceride levels, HDL levels, and total cholesterol levels for each animal were normalized. For normalization, the level of ANGPTL3 protein, triglyceride, HDL, and total cholesterol, respectively, for each animal at a time point, was divided by the pre-treatment level of expression in that animal (in this case at day −1) to determine the ratio of expression “normalized to pre-treatment.” Expression at a specific time point was then normalized to the D5W control group by dividing the “normalized to pre-treatment” ratio for an individual animal by the mean “normalized to pretreatment” ratio of all mice in the D5W control group.

ANGPTL3 gene [3] = assay: Example 7: serum HDL in mice; format: in vivo; parameters: key: ratio: (level/pre-treatment day -1 level) ÷ mean of D5W control group; conditions: 0.5 mg/kg single SC injection day 1, female C57bl/6 mice, n=3, ratio to D5W control
Procedure: as §1, §2, §3

ANGPTL3 protein [4] = assay: Example 3: serum ANGPTL3 protein by ELISA in mice; format: in vivo, C57bl/6 mice; conditions: for Avg ANGPTL3 (Average ANGPTL3 Protein Normalized to Pre-Treatment and Control): 1.0 mg/kg single subcutaneous dose on day 1, serum, female C57bl/6 mice
Procedure: as §1, with “To” for “To further”, “of” for “of additional”, “positions 921 and 922” for “position 304”, “either 1” for “0.5”, “12.” for “31.”
as §2, with “Serum was collected on days 8, 15, 22, and 29.” left out, “Triglycerides,” for “Triglycerides, total cholesterol,”, “total cholesterol” for “low-density lipoprotein (LDL)”
as §4

ANGPTL3 gene [5] = assay: Example 3: serum triglycerides in mice; format: in vivo
Procedure: as §1, with “To” for “To further”, “of” for “of additional”, “positions 921 and 922” for “position 304”, “either 1” for “0.5”, “12.” for “31.”
as §2, with “Serum was collected on days 8, 15, 22, and 29.” left out, “Triglycerides,” for “Triglycerides, total cholesterol,”, “total cholesterol” for “low-density lipoprotein (LDL)”
as §4

[6] = Day 8, 0.5 mg/kg single SC injection on day 1, n=3
[7] = Day 15, 0.5 mg/kg single SC injection on day 1, n=3
[8] = Day 22, 0.5 mg/kg single SC injection on day 1, n=3
[9] = Day 29, 0.5 mg/kg single SC injection on day 1, n=3
[10] = Day 8, 1.0 mg/kg single SC injection on day 1, n=3
[11] = Day 15, 1.0 mg/kg single SC injection on day 1, n=3
[12] = Day 22, 1.0 mg/kg single SC injection on day 1, n=3
[13] = Day 29, 1.0 mg/kg single SC injection on day 1, n=3
[14] = Day 43, 1.0 mg/kg single SC injection on day 1, n=3
[15] = day 22, single 1 mg/kg subcutaneous, C57bl/6 mice
[16] = Day 8, 1.0 mg/kg single subcutaneous dose on day 1, female C57bl/6 mice
[17] = Day 15, 1.0 mg/kg single subcutaneous dose on day 1, female C57bl/6 mice
[18] = Day 22, 1.0 mg/kg single subcutaneous dose on day 1, female C57bl/6 mice
[19] = Day 29, 1.0 mg/kg single subcutaneous dose on day 1, female C57bl/6 mice

Substance | Avg ANGPTL3, normalized to pre-treatment and control (ANGPTL3 protein [1]; [6]) | Avg ANGPTL3, normalized to pre-treatment and control (ANGPTL3 protein [1]; [7]) | Avg ANGPTL3, normalized to pre-treatment and control (ANGPTL3 protein [1]; [8]) | Avg ANGPTL3, normalized to pre-treatment and control (ANGPTL3 protein [1]; [9]) | Avg HDL, normalized to pre-treatment and control (ANGPTL3 gene [2]; [10]) | Avg HDL, normalized to pre-treatment and control (ANGPTL3 gene [2]; [11]) | Avg HDL, normalized to pre-treatment and control (ANGPTL3 gene [2]; [12]) | Avg HDL, normalized to pre-treatment and control (ANGPTL3 gene [2]; [13]) | Avg HDL, normalized to pre-treatment and control (ANGPTL3 gene [2]; [14]) | Avg HDL, normalized to pre-treatment and control (ANGPTL3 gene [3]; Day 8) | Avg HDL, normalized to pre-treatment and control (ANGPTL3 gene [3]; Day 15) | Avg HDL, normalized to pre-treatment and control (ANGPTL3 gene [3]; Day 22) | Avg HDL, normalized to pre-treatment and control (ANGPTL3 gene [3]; Day 29) | Avg ANGPTL3 (Average ANGPTL3 Protein Normalized to Pre-Treatment and Control) (ANGPTL3 protein [4]; Day 8) | Avg ANGPTL3 (Average ANGPTL3 Protein Normalized to Pre-Treatment and Control) (ANGPTL3 protein [4]; Day 15) | Avg ANGPTL3 (Average ANGPTL3 Protein Normalized to Pre-Treatment and Control) (ANGPTL3 protein [4]; Day 22) | Avg ANGPTL3 (Average ANGPTL3 Protein Normalized to Pre-Treatment and Control) (ANGPTL3 protein [4]; Day 29) | Avg TG (Average Triglycerides Normalized to Pre-Treatment and Control) (ANGPTL3 gene [5]; [16]) | Avg TG (Average Triglycerides Normalized to Pre-Treatment and Control) (ANGPTL3 gene [5]; [17]) | Avg TG (Average Triglycerides Normalized to Pre-Treatment and Control) (ANGPTL3 gene [5]; [18]) | further results
AD05488: RNAi agent duplex: antisense AM07235-AS, sense AM07234-SS (antisense mU*fA*mC*fUmGfAmUfCmAfAmAfUmAfUmGfUmUfGmAfG*mC; sense {NAG37}*[invAb]*mGmCmUmCmAmAmCmAfUfAfUmUmUmGmAmUmCmAmGmUmA*[invAb]) | 0.339 | 0.379 | 0.346 | 0.469 | 0.839 | 0.644 | 0.727 | 0.771 | 0.833 | 0.783 | 0.793 | 0.780 | 0.886 |  |  |  |  |  |  |  | 
AD05308: RNAi agent duplex: antisense AM07003-AS, sense AM07002-SS (chain 1 mU*fG*mU*fUmGfAmAfUmUfAmAfUmGfUmCfCmAfUmGfG*mA; chain 2 {NAG37}*[invAb]*mUmCmCmAmUmGmGmAfCfAfUmUmAmAmUmUmCmAmAmCmA*[invAb]) | 0.447 | 0.388 | 0.440 | 0.523 | 0.904 | 0.801 | 0.728 | 0.824 | 1.096 | 0.750 | 0.791 | 0.846 | 0.905 | 0.196 | 0.202 | 0.209 | 0.309 | 0.952 | 0.749 | 0.854 | ANGPTL3 protein normalized to pre-treatment and control (ANGPTL3 protein [4]; [15]): 0.209; reduction in ANGPTL3 protein levels compared to control (ANGPTL3 protein [4]; [15]): ~80%; Avg HDL, normalized to pre-treatment and control (ANGPTL3 gene [2]; [6]): 1.007; Avg HDL, normalized to pre-treatment and control (ANGPTL3 gene [2]; [7]): 0.770; Avg HDL, normalized to pre-treatment and control (ANGPTL3 gene [2]; [8]): 0.921; Avg HDL, normalized to pre-treatment and control (ANGPTL3 gene [2]; [9]): 0.934; Avg HDL, normalized to pre-treatment and control (ANGPTL3 gene [2]; Day 43, 0.5 mg/kg single SC injection on day 1, n=3): 1.101; Avg TG (Average Triglycerides Normalized to Pre-Treatment and Control) (ANGPTL3 gene [5]; [19]): 1.009
AD05307: RNAi agent duplex: antisense AM07001-AS, sense AM07000-SS (chain 1 mU*fU*mU*fGmAfAmUfUmAfAmUfGmUfCmCfAmUfGmGmG*mC; chain 2 {NAG37}*[invAb]*mGmCmCmCmAmUmGmGfAfCfAmUmUmAmAmUmUmCmAmAmA*[invAb]) |  |  |  |  |  |  |  |  |  |  |  |  |  | 0.323 | 0.311 | 0.346 | 0.486 | 0.786 | 0.692 | 0.903 | Avg TG (Average Triglycerides Normalized to Pre-Treatment and Control) (ANGPTL3 gene [5]; [19]): 0.852
AD05418: RNAi agent duplex: antisense AM07159-AS, sense AM07158-SS (antisense mU*fU*mU*fGmAfAmUfUmAfAmUfGmUfCmCfAmUfGmGfG*mU; sense {NAG37}*[invAb]*mAmCmCmCmAmUmGmGfAfCfAmUmUmAmAmUmUmCmAmAmA*[invAb]) | 0.534 | 0.565 | 0.639 | 0.758 | 0.828 | 0.730 | 0.846 | 0.845 | 1.018 | 0.907 | 0.857 | 0.910 | 1.048 | 0.236 | 0.290 | 0.394 | 0.517 | 0.718 | 0.791 | 0.855 | Avg TG (Average Triglycerides Normalized to Pre-Treatment and Control) (ANGPTL3 gene [5]; [19]): 0.881
